Experimental data reported in patent US20020002171A1, “Materials and methods for killing nematodes and nematode eggs” (priority 2000, published 2002).

These compounds were tested on Caenorhabditis elegans (assay: C. elegans L1 nematicidal dose response in 96-well plates, 5 day visual score (Example 2; same procedure for Example 7, Table 3)). Settings: Follow-up HTS run.
Format: in vivo
Design: key to 5 Day Visual Score V1 / 5 Day Visual Score V2 / 5 Day Visual Score V3 / 5 Day Visual Score V4 / 5 Day Visual Score V6 / 5 Day Visual Score V5 / Initial HTS Run Visual Score / Follow-up HTS Run Visual Score: Dead: only stiff L1s (no movement); Dead (L4): worms are dead, but at a later larval stage; majority of worms are L1 (based on size) worms move when plate is tapped; majority of worms are L2 (based on size); majority of worms are L3 (based on size); majority of worms are L4 (based on size); AD: majority of worms are adult; #AD: 5 adult worms or less; B!: sterile (0-25 progeny); B: low broodsize (25-100 progeny); ˜B: moderate broodsize (100-250 progeny); <: reduced broodsize (250-500 progeny); OK: no effect (˜1000+ progeny)
How it was run: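 L1 larvae, 20 per well in NGM with 1% E. coli HB101 and antibiotic/antimycotic, exposed to six 3-fold dilutions from 70 μM down to 0.3 μM (1.4% DMSO at top). Held at 20° C; viability scored visually under 100× dissecting microscope on day 5.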

| Compound | Follow-up HTS Run % Run [%] | Follow-up HTS Run Visual Score | Follow-up HTS Run mOD [mOD] |
| --- | --- | --- | --- |
| CN(Cc1ccccc1)c1nc(NCc2ccccc2C(F)(F)F)ns1 [compound 323] | 120 | L4/AD/B! | 193 |
| OCCN(Cc1ccccc1)c1nc(NCc2ccc(C(F)(F)F)cc2)ns1 [compound 255] | 98 | L1/L2 - Dead L3 | 157 |
| CCCCN(CC)c1nc(NCc2ccc(C(F)(F)F)cc2)ns1 [compound 319] | 127 | L2 | 205 |
| CN(CCc1ccccc1)c1nc(NC2CCCCCCCCCCC2)ns1 [compound 335] | 86 | Dead | 139 |
| CC(C)CN(CC(C)C)c1nc(NCc2ccc(C(F)(F)F)cc2)ns1 [compound 311] | 109 | B! (sterile (0-25 progeny)) | 176 |
| C=CCN(CC=C)c1nc(NCc2ccc(C(F)(F)F)cc2)ns1 [compound 312] | 115 |  | 185 |
| CC1CCN(c2nc(NCc3ccc(C(F)(F)F)cc3)ns2)CC1 [compound 247] | 105 |  | 169 |
| CCCCCCCCCCNc1nsc(N(CC(CC)CCCC)CC(CC)CCCC)n1 (stereo not drawn) [compound 278] | 109 | Dead | 175 |
| CCCCCCCCCCNc1nsc(N(C)Cc2ccccc2)n1 [compound 284] | 122 | Dead | 196 |

Same assay, conditions: Initial HTS run

| Compound | Initial HTS Run % Run [%] | Initial HTS Run Visual Score | Initial HTS Run mOD [mOD] |
| --- | --- | --- | --- |
| CN(Cc1ccccc1)c1nc(NCc2ccccc2C(F)(F)F)ns1 [compound 323] | 110 | L3/L4/AD/B!-Clear | 121 |
| OCCN(Cc1ccccc1)c1nc(NCc2ccc(C(F)(F)F)cc2)ns1 [compound 255] | 94 | Dead(L3) | 103 |
| CCCCN(CC)c1nc(NCc2ccc(C(F)(F)F)cc2)ns1 [compound 319] | 121 | L2 | 133 |
| CN(CCc1ccccc1)c1nc(NC2CCCCCCCCCCC2)ns1 [compound 335] | 97 | Dead | 107 |
| CC(C)CN(CC(C)C)c1nc(NCc2ccc(C(F)(F)F)cc2)ns1 [compound 311] | 98 | L4/AD/B! | 108 |
| C=CCN(CC=C)c1nc(NCc2ccc(C(F)(F)F)cc2)ns1 [compound 312] | 104 |  | 114 |
| CC1CCN(c2nc(NCc3ccc(C(F)(F)F)cc3)ns2)CC1 [compound 247] | 91 |  | 100 |
| CCCCCCCCCCNc1nsc(N(CC(CC)CCCC)CC(CC)CCCC)n1 (stereo not drawn) [compound 278] | 112 | Dead | 123 |
| CCCCCCCCCCNc1nsc(N(C)Cc2ccccc2)n1 [compound 284] | 142 | Dead | 156 |

Same assay, conditions: dose response, dilution V1, 5 day

| Compound | 5 Day Visual Score V1 |
| --- | --- |
| CN(Cc1ccccc1)c1nc(NCc2ccccc2C(F)(F)F)ns1 [compound 323] | L4#AD/B! |
| CN(CCc1ccccc1)c1nc(NC2CCCCCCCCCCC2)ns1 [compound 335] | Dead |
| CC(C)CN(CC(C)C)c1nc(NCc2ccc(C(F)(F)F)cc2)ns1 [compound 311] | L1 |
| C=CCN(CC=C)c1nc(NCc2ccc(C(F)(F)F)cc2)ns1 [compound 312] | L1 |

Same assay, conditions: dose response, dilution V1, day 5

| Compound | 5 Day Visual Score V1 |
| --- | --- |
| OCCN(Cc1ccccc1)c1nc(NCc2ccc(C(F)(F)F)cc2)ns1 [compound 255] | Dead |
| CCCCCCCCCCNc1nsc(N(CC(CC)CCCC)CC(CC)CCCC)n1 (stereo not drawn) [compound 278] | Dead |
| CCCCCCCCCCNc1nsc(N(C)Cc2ccccc2)n1 [compound 284] | Dead |

Same assay, conditions: dose response, dilution V2, 5 day

| Compound | 5 Day Visual Score V2 |
| --- | --- |
| CCCCN(CC)c1nc(NCc2ccc(C(F)(F)F)cc2)ns1 [compound 319] | ˜B (moderate broodsize (100-250 progeny)) |
| CC(C)CN(CC(C)C)c1nc(NCc2ccc(C(F)(F)F)cc2)ns1 [compound 311] | < (reduced broodsize (250-500 progeny)) |

Same assay, conditions: dose response, dilution V2, day 5

| Compound | 5 Day Visual Score V2 |
| --- | --- |
| OCCN(Cc1ccccc1)c1nc(NCc2ccc(C(F)(F)F)cc2)ns1 [compound 255] | Dead |
| CC1CCN(c2nc(NCc3ccc(C(F)(F)F)cc3)ns2)CC1 [compound 247] | ˜B (moderate broodsize (100-250 progeny)) |
| CCCCCCCCCCNc1nsc(N(CC(CC)CCCC)CC(CC)CCCC)n1 (stereo not drawn) [compound 278] | Dead |
| CCCCCCCCCCNc1nsc(N(C)Cc2ccccc2)n1 [compound 284] | Dead |

Same assay, conditions: dose response, dilution V3, 5 day

| Compound | 5 Day Visual Score V3 |
| --- | --- |
| CN(Cc1ccccc1)c1nc(NCc2ccccc2C(F)(F)F)ns1 [compound 323] | OK (no effect (˜1000+ progeny)) |
| CCCCN(CC)c1nc(NCc2ccc(C(F)(F)F)cc2)ns1 [compound 319] | OK (no effect (˜1000+ progeny)) |
| CC(C)CN(CC(C)C)c1nc(NCc2ccc(C(F)(F)F)cc2)ns1 [compound 311] | OK (no effect (˜1000+ progeny)) |
| C=CCN(CC=C)c1nc(NCc2ccc(C(F)(F)F)cc2)ns1 [compound 312] | ˜B (moderate broodsize (100-250 progeny)) |

Same assay, conditions: dose response, dilution V3, day 5

| Compound | 5 Day Visual Score V3 |
| --- | --- |
| OCCN(Cc1ccccc1)c1nc(NCc2ccc(C(F)(F)F)cc2)ns1 [compound 255] | OK (no effect (˜1000+ progeny)) |
| CC1CCN(c2nc(NCc3ccc(C(F)(F)F)cc3)ns2)CC1 [compound 247] | OK (no effect (˜1000+ progeny)) |
| CCCCCCCCCCNc1nsc(N(CC(CC)CCCC)CC(CC)CCCC)n1 (stereo not drawn) [compound 278] | ˜B (moderate broodsize (100-250 progeny)) |
| CCCCCCCCCCNc1nsc(N(C)Cc2ccccc2)n1 [compound 284] | Dead |

Same assay, conditions: dose response, dilution V4, 5 day

| Compound | 5 Day Visual Score V4 |
| --- | --- |
| CN(Cc1ccccc1)c1nc(NCc2ccccc2C(F)(F)F)ns1 [compound 323] | < (reduced broodsize (250-500 progeny)) |
| CCCCN(CC)c1nc(NCc2ccc(C(F)(F)F)cc2)ns1 [compound 319] | OK (no effect (˜1000+ progeny)) |
| CC(C)CN(CC(C)C)c1nc(NCc2ccc(C(F)(F)F)cc2)ns1 [compound 311] | OK (no effect (˜1000+ progeny)) |
| C=CCN(CC=C)c1nc(NCc2ccc(C(F)(F)F)cc2)ns1 [compound 312] | OK (no effect (˜1000+ progeny)) |

Same assay, conditions: dose response, dilution V4, day 5

| Compound | 5 Day Visual Score V4 |
| --- | --- |
| OCCN(Cc1ccccc1)c1nc(NCc2ccc(C(F)(F)F)cc2)ns1 [compound 255] | OK (no effect (˜1000+ progeny)) |
| CC1CCN(c2nc(NCc3ccc(C(F)(F)F)cc3)ns2)CC1 [compound 247] | OK (no effect (˜1000+ progeny)) |
| CCCCCCCCCCNc1nsc(N(CC(CC)CCCC)CC(CC)CCCC)n1 (stereo not drawn) [compound 278] | OK (no effect (˜1000+ progeny)) |
| CCCCCCCCCCNc1nsc(N(C)Cc2ccccc2)n1 [compound 284] | ˜B (moderate broodsize (100-250 progeny)) |

Same assay, conditions: dose response, dilution V5, 5 day

| Compound | 5 Day Visual Score V5 |
| --- | --- |
| CN(Cc1ccccc1)c1nc(NCc2ccccc2C(F)(F)F)ns1 [compound 323] | OK (no effect (˜1000+ progeny)) |
| CCCCN(CC)c1nc(NCc2ccc(C(F)(F)F)cc2)ns1 [compound 319] | OK (no effect (˜1000+ progeny)) |
| CC(C)CN(CC(C)C)c1nc(NCc2ccc(C(F)(F)F)cc2)ns1 [compound 311] | OK (no effect (˜1000+ progeny)) |
| C=CCN(CC=C)c1nc(NCc2ccc(C(F)(F)F)cc2)ns1 [compound 312] | OK (no effect (˜1000+ progeny)) |

Same assay, conditions: dose response, dilution V5, day 5

| Compound | 5 Day Visual Score V5 |
| --- | --- |
| OCCN(Cc1ccccc1)c1nc(NCc2ccc(C(F)(F)F)cc2)ns1 [compound 255] | OK (no effect (˜1000+ progeny)) |
| CC1CCN(c2nc(NCc3ccc(C(F)(F)F)cc3)ns2)CC1 [compound 247] | OK (no effect (˜1000+ progeny)) |
| CCCCCCCCCCNc1nsc(N(CC(CC)CCCC)CC(CC)CCCC)n1 (stereo not drawn) [compound 278] | OK (no effect (˜1000+ progeny)) |
| CCCCCCCCCCNc1nsc(N(C)Cc2ccccc2)n1 [compound 284] | OK (no effect (˜1000+ progeny)) |

Same assay, conditions: dose response, dilution V6, 5 day

| Compound | 5 Day Visual Score V6 |
| --- | --- |
| CN(Cc1ccccc1)c1nc(NCc2ccccc2C(F)(F)F)ns1 [compound 323] | OK (no effect (˜1000+ progeny)) |
| CCCCN(CC)c1nc(NCc2ccc(C(F)(F)F)cc2)ns1 [compound 319] | OK (no effect (˜1000+ progeny)) |
| CN(CCc1ccccc1)c1nc(NC2CCCCCCCCCCC2)ns1 [compound 335] | < (reduced broodsize (250-500 progeny)) |
| CC(C)CN(CC(C)C)c1nc(NCc2ccc(C(F)(F)F)cc2)ns1 [compound 311] | OK (no effect (˜1000+ progeny)) |
| C=CCN(CC=C)c1nc(NCc2ccc(C(F)(F)F)cc2)ns1 [compound 312] | OK (no effect (˜1000+ progeny)) |

Same assay, conditions: dose response, dilution V6, day 5

| Compound | 5 Day Visual Score V6 |
| --- | --- |
| OCCN(Cc1ccccc1)c1nc(NCc2ccc(C(F)(F)F)cc2)ns1 [compound 255] | OK (no effect (˜1000+ progeny)) |
| CC1CCN(c2nc(NCc3ccc(C(F)(F)F)cc3)ns2)CC1 [compound 247] | OK (no effect (˜1000+ progeny)) |
| CCCCCCCCCCNc1nsc(N(CC(CC)CCCC)CC(CC)CCCC)n1 (stereo not drawn) [compound 278] | OK (no effect (˜1000+ progeny)) |
| CCCCCCCCCCNc1nsc(N(C)Cc2ccccc2)n1 [compound 284] | OK (no effect (˜1000+ progeny)) |
